Assays:
[1] = target: T1, UGT1A3 (Homo sapiens, UniProt P35503); assay: recombinant UGT 4-MU glucuronidation, HPLC, single concentration […]; format: biochemical; settings: read-out: 1A3
T1 sequence (P35503 29-534): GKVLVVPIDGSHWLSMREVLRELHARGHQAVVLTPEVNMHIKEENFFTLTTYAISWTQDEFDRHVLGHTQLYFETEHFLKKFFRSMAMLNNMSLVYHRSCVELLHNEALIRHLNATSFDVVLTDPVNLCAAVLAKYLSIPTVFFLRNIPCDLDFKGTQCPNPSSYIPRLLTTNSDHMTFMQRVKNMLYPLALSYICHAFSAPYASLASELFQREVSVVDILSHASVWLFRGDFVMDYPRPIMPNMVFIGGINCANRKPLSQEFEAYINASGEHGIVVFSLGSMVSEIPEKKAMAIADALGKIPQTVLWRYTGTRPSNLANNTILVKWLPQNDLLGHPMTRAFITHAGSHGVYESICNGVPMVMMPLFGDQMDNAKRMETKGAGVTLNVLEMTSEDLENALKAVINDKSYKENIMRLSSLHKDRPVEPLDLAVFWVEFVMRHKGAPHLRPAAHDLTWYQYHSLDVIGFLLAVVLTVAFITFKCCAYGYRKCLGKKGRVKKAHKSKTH

[2] = target: T2, UGT2B7 (Homo sapiens, UniProt P16662); assay: as above; format: biochemical; settings: read-out: 2B7
T2 sequence (P16662 24-529): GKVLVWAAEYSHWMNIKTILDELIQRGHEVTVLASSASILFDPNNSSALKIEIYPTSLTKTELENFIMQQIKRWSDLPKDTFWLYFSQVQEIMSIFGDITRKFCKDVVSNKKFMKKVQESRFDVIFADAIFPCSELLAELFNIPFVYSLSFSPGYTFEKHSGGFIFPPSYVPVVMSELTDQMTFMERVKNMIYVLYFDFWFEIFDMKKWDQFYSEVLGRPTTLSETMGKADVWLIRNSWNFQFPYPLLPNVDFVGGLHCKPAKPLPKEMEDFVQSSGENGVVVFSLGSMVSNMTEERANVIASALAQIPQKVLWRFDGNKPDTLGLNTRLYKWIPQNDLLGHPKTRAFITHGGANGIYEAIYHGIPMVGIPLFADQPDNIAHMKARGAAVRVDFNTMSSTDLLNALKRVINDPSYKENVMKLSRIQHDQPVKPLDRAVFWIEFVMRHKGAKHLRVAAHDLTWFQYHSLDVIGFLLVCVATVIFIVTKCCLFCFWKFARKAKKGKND

| SMILES | activity at 100 µM [1] | activity at 100 µM [2] |
| --- | --- | --- |
| COc1cc2c(c(OC)c1OC)-c1c(cc(OC)c(OC)c1OC)C[C@H](C)[C@H](C)C2 [schisandrin A] | 0% |  |
| COc1cc2c(c(O)c1OC)-c1c(cc(OC)c(OC)c1OC)C[C@@H](C)[C@@H](C)C2 [schisanhenol] |  | 7.9% |
